According to article PMC11940194, “Synthesis, Antiproliferative Activity, and ADME Profiling of Novel Racemic and Optically Pure Aryl-Substituted Purines and Purine Bioisosteres” (Biomolecules, 2025):
Entries after “also recorded” stand apart in the source; their conditions may differ.

Key:
[1] = tested on: MCF-7, CFPAC-1, HT-29, HepG2 tumor cell lines and HFF-1 fibroblasts; assay: Antiproliferative activity, whole cell line panel; assay type: cell-based, human; settings: tested cell lines
Description: The human ATCC tumor cell lines breast adenocarcinoma (MCF7), colorectal carcinoma (HT-29), pancreatic ductal adenocarcinoma (CFPAC-1), hepatocellular carcinoma (HepG2), and normal skin fibroblasts (HFF) derived from ATCC (American Type Culture Collection) were cultured in Dulbecco’s Modified Eagle Medium (DMEM) or Minimum Essential Medium (MEM) supplemented with 10% fetal bovine serum (FBS), 2 mM L-glutamine, 100 U/mL penicillin, and 100 µg/mL streptomycin (Lonza, Basel, Switzerland) in a humidified atmosphere with 5% CO2 at 37 °C. For the experiment, carcinoma cell lines and normal human cell lines were seeded in 96-well microtiter plates at a density of 3000 cells per well and 5000 cells per well, respectively, depending on the doubling time of the specific cell line. The test substances were then added at fivefold, tenfold dilutions (0.01 to 100 µM), freshly prepared in the growth medium on the day of testing, and incubated for a further 72 h. After 72 h of incubation, the growth rate of the cells was determined using the MTT assay according to the manufacturer’s guidelines. […] The IC50 values were calculated from the dose–response curves using linear regression analysis. The experiment was performed in tetraplicates in two individual experiments.
Newly synthesized compounds were evaluated for their cytotoxic activity in vitro against four human cancer cell lines, including human breast adenocarcinoma (MCF-7), ductal pancreatic adenocarcinoma (CFPAC-1), colorectal carcinoma (HT-29), and hepatocellular carcinoma (HepG2), as well as on non-cancerous skin fibroblasts (HFF-1), to check for non-specific toxicity. Furthermore, 5-Fluorouracil (5-FU) was used as a reference drug. The results are expressed as 50% inhibitory concentration (IC50) values and are listed in Table 2, Table 3, Table 4 and Table 5.

[2] = tested on: P-glycoprotein (human MDR1); assay: MDCKII-MDR1 permeability assay; assay type: in vitro ADME, canine cells with over-expressed human MDR1 gene; settings: dog, MDCK-MDR1; for Papp A→B at 60 min, 10 µM / Papp B→A at 60 min, 10 µM: 37 °C; for efflux ratio at 60 min, 10 µM: <2 no efflux, >2 active efflux
Summary of the method: (§1)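 Bidirectional transport across MDCKII cells overexpressing human MDR1, compounds 10 µM (1% DMSO) for 60 min at 37 °C, with and without 2 µM elacridar. Monolayer integrity checked by Lucifer yellow; compound concentrations quantified by LC-MS/MS (MRM).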

[3] = tested on: MDCKII-MDR1 cells (P-glycoprotein); assay: MDCKII-MDR1 permeability assay; assay type: in vitro ADME, canine cells with over-expressed human MDR1 gene; settings: permeability class
Summary of the method: as §1

[4] = tested on: hepatocellular carcinoma (HepG2) cells; assay: Antiproliferative MTT assay, HepG2; assay type: cell-based, human; settings: for IC50: Homo sapiens, HepG2, 72 h, 72 h incubation, MTT, mean ± SD
Summary of the method: (§2)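 MTT read-out after 72 h exposure to compounds (0.01–100 µM, fivefold/tenfold dilutions in growth medium). Seeding 3000 cells/well for carcinoma lines, 5000 for HFF-1. IC50 by linear regression; 5-FU reference.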

[5] = tested on: pancreatic ductal adenocarcinoma (CFPAC-1) cells; assay: Antiproliferative MTT assay, CFPAC-1; assay type: cell-based, human; settings: for IC50: 72 h incubation, MTT, mean ± SD
Summary of the method: as §2

[6] = tested on: normal skin fibroblasts (HFF-1); assay: Cytotoxicity MTT assay, normal skin fibroblasts; assay type: cell-based, human; settings: Homo sapiens, HFF-1, 72 h, 72 h incubation, mean ± SD
Summary of the method: as §2

Row | Compound | antiproliferative activity (in words) [1] | Papp A→B at 60 min, 10 µM [2] [×10⁻⁶ cm/s] | Papp B→A at 60 min, 10 µM [2] [×10⁻⁶ cm/s] | efflux ratio at 60 min, 10 µM [2] | Permeability [3] | IC50 [4] [µM] | IC50 [5] [µM] | IC50 ([5]; Homo sapiens, CFPAC-1, 72 h) [µM] | SI (CFPAC-1) ([5]; SI = [IC50 HFF]/[IC50 CFPAC-1]) | IC50 [6] [µM] | Papp at 60 min, 10 µM ([2]; permeability class) [×10⁻⁶ cm/s] | SI (HepG2) ([4]; SI = [IC50 HFF]/[IC50 HepG2])
1 | OCC(c1ccc(C(F)(F)F)cc1)n1cc(Cn2ccc3c(Cl)ncnc32)nn1 (stereo not drawn) [Compound 45a, 4-Chloro-7-((1-(2-hydroxy-1-(4-(trifluoromethyl)phenyl)ethyl)-1H-1,2,3-triazol-4-yl)methyl)-7H-pyrrolo[2,3-d]pyrimidine] | submicromolar antiproliferative activity | 7.6 | 66.4 | 8.8 | good membrane permeability; also recorded: MODERATE | 28 ± 0.5 | 1 ± 0.7 | 1 to 8 | 20.0 | 20 ± 4.7 | – | –
2 | OC(Cn1cc(Cn2cnc3c(Cl)nccc32)nn1)c1ccc(Br)cc1 (stereo not drawn) [Compound 49b, 4-Chloro-1-((1-(2-hydroxy-2-(4-bromophenyl)ethyl)-1H-1,2,3-triazol-4-yl)methyl)-1H-imidazo[4,5-c]pyridine] | – | ≤ 2 | 36.9 | 23.3 | – | 4 | – | 21 ± 0.7 | – | 21 ± 5.8 | ≤ 2 | 5.3
